# Results as given in patent publication US10918891B2, “Cosmetic treatment method for the skin” (SYNTIVIA, priority 2016, dated 2021).
# Experiments:
# MMP1 = MMP1 immunofluorescence on human skin explants after repeated UVA irradiation; format: cell-based; conditions: skin explant, (Ia) 100 ppm
# Experimental: In these examples, the protective properties of the compound (Ia) against the damage caused to the DNA and to the extracellular matrix by repeated UVA irradiation, are measured on explants of human skin (NATIVESKIN, Genoskin).
# Upon reception of the explants, the latter are topically coated with Carbopol® (Lubrizol)+DMSO for the non-UVA control (CTL without stress) and for the control with stress by UVAs (CTL UVA), and with Carbopol®+compound (Ia) at 100 ppm for the test.
# Over three days, the cells are subjected to three stresses with UVAs at a rate of 50 joules per square centimetre.
# The first irradiation takes place 24 hours after the treatments. The products are present before, during and after the irradiation. The control without stress is wrapped in aluminium and also placed in the irradiator.
# During the irradiation, the explants inserted are disposed in a petri dish with PBS. Fresh medium (Genoskin Culture medium) is added after the irradiation.
# After the third day of irradiation, the explants are cultivated for 24 hours, then collected and fixed for 48 hours in formalin (Sigma). The samples are included in paraffin and cut.
# A marking of the protein MMP1 by immunofluorescence on a paraffin section is carried out.
# The samples are prepared for the fluorescent marking. […]
# The sections are mounted on a slide and the fluorescence is quantified using a microscope (Leica DM5000B).
# MMP-3 = experiment: Gene expression of MMP-3 by quantitative RT-PCR in NHEK; format: cell-based, human; conditions: (Ia) 3 ppm (10^−5M), 24 hours
# Experimental: (§1) In these examples, the expression of the messenger RNA is measured by the technique of quantitative RT-PCR (reverse transcription followed by polymerase chain reaction), after incubation in vitro of the various cell types in the absence or in the presence of compound (Ia).
# (§2) This study was carried out on normal human dermal Fibroblasts (NHDF) or normal human epidermal Keratinocytes (NHEK). The compound (Ia) is tested at 10^−5M in an aqueous solution with 0.1% dimethylsulfoxide.
# (§3) The cells are cultured at the concentration of 10,000 cells per well of 96-well plates, in the presence of standard culture medium according to the cell type.
# (§4) The compound (Ia) is then added at the concentration (3 ppm), for 24 hours.
# (§5) The supernatant is eliminated and the cells are taken up in a specific buffer for the extraction of the messenger RNA (mRNA). The mRNA is purified and reverse transcribed in the presence of a commercial reverse transcriptase.
# (§6) The complementary DNA (cDNA) obtained is quantified by RT-PCR, by means of suitable primers. The rate of expression of the mRNA is normalised with 5 reference genes.
# (§7) The cells used for this example are normal human keratinocytes (NHEK).
# MMP-9 = experiment: Gene expression of MMP-9 by quantitative RT-PCR in NHEK; format: cell-based, human; conditions: (Ia) 3 ppm (10^−5M), 24 hours
# Experimental: as §1, §2, §3, §4, §5, §6, §7
# NHDF cells = experiment: Cellular viability (WST1) of NHDF exposed to cigarette extract; format: cell-based, human; conditions: (Ia) 10 ppm pretreatment 24 h and treatment 24 h; cigarette extract diluted 1/50; WST1, 450 nm; Control 1.618, Cigarette extract 1.357
# Experimental: The cells used for this example are normal human Fibroblasts (NHDF) and normal human epidermal Keratinocytes (NHEK).
# A cigarette extract is prepared using a laboratory device allowing the sucking up of cigarette smoke via a suction system, and the controlled bubbling of this cigarette smoke into the solution studied, which is then filtered on a 0.22 μm filter made of Polyether sulfone (PES).
# The cells are cultured at the concentration of 7000 cells per well of 96-well plates (NHDF) or 8000 cells per well (NHEK), in the presence of standard culture medium for NHDF or NHEK (for 24 h 37° C., 5% CO2).
# After pretreatment of the cells with the compound (Ia) at 10 ppm for 24 h the cells are treated with the cigarette extract diluted to 1/50th in the culture medium with or without the compound (Ia) at 10 ppm for 24 h. The absorbance is read a first time at […] (Multiskan®).
# Then, 10 μl of WST1 (Roche) are introduced into the medium and the cells are incubated for 3 hours.
# The absorbance at 450 nm is measured after the addition of WST1 (Multiskan®) and the results obtained, in terms of cellular viability, are shown in tables 11 and 12 below. The treated cells (Cigarette extract+(Ia)) are compared to the untreated cells (Control) or to the cells having only undergone exposure to the cigarette extract (Cigarette extract).
# NHEK cells = experiment: Survival (WST1) of NHEK keratinocytes exposed to cigarette extract, comparison with caffeic acid; format: cell-based, human; conditions: compound 10 ppm pretreatment 24 h and treatment 24 h, cigarette extract 1/50, cigarette extract alone 55% survival, FIG. 4
# Experimental: This study aims to compare the protective or repairing effect of the compounds according to the invention (Ia) and (Ib) with respect to the damage induced on the skin by a cigarette extract. For comparison, caffeic acid (supplier: Acros) is also tested. This acid forms a basic unit of the compounds (Ia) and (Ib) according to the invention.
# The NHEK cells are inoculated in a 96-well plate in a suitable medium (Promocell), at a rate of 9000 cells per well, and incubated 24 h at 37° C. and 5% carbon dioxide.
# The compounds to be tested are prepared as follows: • (Ia): 10 mg of compound+909 μL of DMSO • (Ib): 7 mg of compound+636 μL of DMSO • caffeic acid: 10 mg of compound+909 μL of DMSO
# Each stock solution above is diluted 1000 times, to 10 ppm in the culture medium, then the solutions obtained are filtered by means of a nylon filter (0.22 μm). The final solutions are concentrated to 10 ppm in 0.1% DMSO.
# Solutions at 20 ppm in 0.2% DMSO are also prepared in a similar manner, for dilution in the cigarette extract.
# An extract of 20 cigarettes is prepared as indicated in example 14 above. This extract is then diluted to 1/50 in the culture medium; or to 2/50 in the culture medium, then to 1/2 in the culture medium, to which the compound to be tested is added at 20 ppm.
# The cells are pretreated for 24 h with the compound to be tested at 10 ppm in the culture medium.
# The cells are then treated with the cigarette extract diluted to 1/50th with or without the compound tested at 10 ppm for 24 h.
# 3 h before the end of the test, 10 μl of WST1 cellular proliferation reactant (Roche) are added into each well. The absorbance at 450 nm is measured before and after the addition of WST1 reactant, by means of a Multiskan® reader. The treated cells are compared to the untreated cells and to the cells exposed to the cigarette extract.
structure (smiles),measurement,setting,value
Cc1ncc(CO)c(CNC(=O)/C=C/c2ccc(O)c(O)c2)c1O [Compound (Ia)],Average fluorescence intensity of the MMP1 marking (AU),"MMP1; CTL UVA 165.2, CTL without stress 141.6",146.2 AU
same,Cells positive for MMP1 based on 100%,"MMP1; relative to CTL without stress, CTL UVA +16.7%",+3.2%
same,Reduction of the gene expression compared to the basal level based on 100% (MMP-3),MMP-3,−50%
same,Reduction of the gene expression compared to the basal level based on 100% (MMP-9),MMP-9,−75%
same,Cellular viability on NHDF (Optical density),NHDF cells,1.674 Optical density
same,% survival of the cells,NHEK cells,108%
